How the values were obtained:
[1] = biological target: T1, RAC-alpha serine/threonine-protein kinase (Homo sapiens, UniProt P31749); test: Inhibition of His-tagged ATP-binding domain of AKT1 assessed as GRPRTSSFAEG crosstide phosphorylation using [33P]ATP
[2] = biological target: T1, RAC-alpha serine/threonine-protein kinase; test: Inhibition of His-tagged ATP-binding domain of AKT1 assessed as residual activity by measuring GRPRTSSFAEG crosstide phosphorylation at 50 uM using [33P]ATP

T1 sequence (P31749 whole entry, the tested form may be a part): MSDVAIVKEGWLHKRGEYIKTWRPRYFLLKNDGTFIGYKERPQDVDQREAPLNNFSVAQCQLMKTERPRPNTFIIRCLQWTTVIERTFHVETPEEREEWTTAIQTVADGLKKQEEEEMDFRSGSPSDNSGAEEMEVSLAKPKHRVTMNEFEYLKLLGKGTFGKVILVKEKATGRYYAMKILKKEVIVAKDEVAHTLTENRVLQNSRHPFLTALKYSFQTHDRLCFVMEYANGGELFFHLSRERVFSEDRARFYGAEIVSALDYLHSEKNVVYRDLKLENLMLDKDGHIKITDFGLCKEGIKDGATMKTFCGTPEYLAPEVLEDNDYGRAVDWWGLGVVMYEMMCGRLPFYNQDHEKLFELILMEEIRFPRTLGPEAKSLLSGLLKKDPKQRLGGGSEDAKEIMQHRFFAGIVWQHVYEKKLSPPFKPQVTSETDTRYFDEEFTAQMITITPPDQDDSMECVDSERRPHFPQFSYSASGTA

IC50 [1] [µM] | inhibition [1] | Activity [2] [%] | Compound
40.2 |  |  | CC(C)[C@H](NC(=O)[C@@H]1CC[C@H]2[C@H](NC(=O)CCCCN=C(N)N)COC(=O)N12)C(=O)NC(Cc1ccccc1)C(=O)NCc1ccccc1 (mixture of isomers)
16.3 | Dose-dependent effect | 14.6 | CC(C)[C@H](NC(=O)[C@@H]1CC[C@H]2[C@H](NC(=O)[C@H](CCCNC(=N)N)NC(=O)c3ccccc3)COC(=O)N12)C(=O)NC(Cc1ccccc1)C(=O)NCc1ccccc1 (mixture of isomers)
15 |  |  | CC(C)[C@H](NC(=O)[C@@H]1CC[C@H]2[C@H](NC(=O)[C@H](CCCN=C(N)N)NC(=O)Cc3ccccc3)COC(=O)N12)C(=O)NC(Cc1ccccc1)C(=O)NCc1ccccc1 (mixture of isomers)
3.1 |  |  | CC(C)[C@H](NC(=O)[C@@H]1CC[C@H]2[C@H](NC(=O)[C@H](CCCN=C(N)N)NC(=O)OCc3ccccc3)COC(=O)N12)C(=O)NC(Cc1ccccc1)C(=O)NCc1ccccc1 (mixture of isomers)
 | Dose-dependent effect | 21.1 | CC(C)[C@H](NC(=O)[C@@H]1CC[C@H]2[C@H](NC(=O)CCCCNC(=N)N)COC(=O)N12)C(=O)NC(Cc1ccccc1)C(=O)NCc1ccccc1 (mixture of isomers)
 |  | 89.4 | CC(C)[C@H](NC(=O)[C@@H]1CC[C@H]2[C@H](NC(=O)CNC(=N)N)COC(=O)N12)C(=O)NC(Cc1ccccc1)C(=O)NCc1ccccc1 (mixture of isomers)
 | Dose-dependent effect | 16.8 | CC(C)[C@H](NC(=O)[C@@H]1CC[C@H]2[C@H](NC(=O)[C@H](CCCNC(=N)N)NC(=O)Cc3ccccc3)COC(=O)N12)C(=O)NC(Cc1ccccc1)C(=O)NCc1ccccc1 (mixture of isomers)
 | Dose-dependent effect | 2.2 | CC(C)[C@H](NC(=O)[C@@H]1CC[C@H]2[C@H](NC(=O)[C@H](CCCNC(=N)N)NC(=O)OCc3ccccc3)COC(=O)N12)C(=O)NC(Cc1ccccc1)C(=O)NCc1ccccc1 (mixture of isomers)
